Assay [1] deals with MCP-1 induced calcium ion influx in THP-1 cells. Description: MCP-1 Induced Calcium Mobilization in THP-1 Cells. Format: cell-based. Conditions: for IC50: 0.2 μM MCP-1, FLIPR, read-out: Inhibition of MCP-1 Induced Calcium Ion Influx IC50; for inhibition at 25 µM: THP-1, test concentration of 25 μM, given where an IC50 value was not obtained, read-out: Inhibition of MCP-1 Induced Calcium Ion Influx, percent inhibition. How it is done: THP-1 cells were plated at a density of 8×10^5 cells/mL (100 μL/well) into poly-D lysine coated clear bottom, black 96 well plates. The cells were loaded with 5 μM fluo-3 for 45 minutes. The fluo-3 washed off and cells were incubated with varying concentrations of test compound for 15 minutes. The change in calcium ion concentration upon addition of 0.2 μM MCP-1 was determined using FLIPR and compared to vehicle.
Table 2 lists IC50 values for inhibition of MCP-1 induced influx of calcium ions.
On the technique in general: Calcium assays in cells follow changes in intracellular calcium, usually with a dye or a luminescent sensor.

The target in another assay is T1, CCR2 (Homo sapiens, UniProt P41597).
T1 construct: host or cells: THP-1 cells
T1 sequence (P41597 1-360 isoform P41597-2): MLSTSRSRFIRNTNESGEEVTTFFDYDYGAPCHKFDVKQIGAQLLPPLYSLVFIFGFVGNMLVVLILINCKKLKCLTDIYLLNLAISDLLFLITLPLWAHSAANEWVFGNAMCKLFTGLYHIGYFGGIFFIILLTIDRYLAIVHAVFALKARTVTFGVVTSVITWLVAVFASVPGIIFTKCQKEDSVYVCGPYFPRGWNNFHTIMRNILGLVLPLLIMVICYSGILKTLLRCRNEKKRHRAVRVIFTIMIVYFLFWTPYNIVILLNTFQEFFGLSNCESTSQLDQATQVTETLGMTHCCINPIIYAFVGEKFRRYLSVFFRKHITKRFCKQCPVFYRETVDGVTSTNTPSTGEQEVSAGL
Description: MCP-1 Receptor Binding Assay in THP-1 Cells. The settings on record: for IC50: THP-1 cells, 0.5 nM 125I labeled MCP-1, 2 hours at 30° C., read-out: Inhibition of MCP-1 Binding IC50. Put shortly:
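Whole THP-1 cells incubated 2 h at 30° C with 0.5 nM 125I-MCP-1 and varying compound concentrations; bound radioactivity harvested on filters and counted by scintillation. Nonspecific binding with 1 μM cold MCP-1; IC50 for inhibition of binding versus vehicle.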

Setting [2] is: Homo sapiens, THP-1, THP-1 cells.

SMILES strings stand for the structures. Read-outs that look alike come from different tables or passages of the source.

What is called IC50 is the concentration that gives 50% inhibition. Regarding `COc1ccc(C2CCN(CC(CO)C3CCN(C(=O)Nc4ccc(Cl)c(Cl)c4)CC3)CC2)cc1` (stereo not shown) [Compound 44, 4-{1-hydroxymethyl-2-[4-(4-methoxy-phenyl)-piperidin-1-yl]-ethyl}-piperidine-1-carboxylic acid (3,4-dichloro-phenyl)-amide], the IC50 came to 720 nM in assay [1] (setting [2]) and 1800 nM on CCR2.

Usually inhibition stands for the relative decrease from the control value, in per cent. `O=C(Nc1ccc(Cl)c(Cl)c1)N1CCC(CC(CO)N2CCC(c3c[nH]c4ccccc34)CC2)CC1` (stereo not shown) [Compound 58, 4-{3-hydroxy-2-[4-(1H-indol-3-yl)-piperidin-1-yl]-propyl}-piperidine-1-carboxylic acid (3,4-dichloro-phenyl)-amide]: the inhibition at 25 µM in assay [1] (Homo sapiens) stood at 42%. Further, the IC50 on CCR2 was found to be 5000 nM.

As to `COc1ccc(C2CCN(CC(NC(C)=O)C3CCN(C(=O)C=Cc4cc(F)c(F)c(F)c4)CC3)CC2)cc1` (stereo not shown) [Compound 66, N-(2-[4-(4-methoxy-phenyl)-piperidin-1-yl]-1-{1-[3-(3,4,5-trifluoro-phenyl)-acryloyl]-piperidin-4-yl}-ethyl)-acetamide], the IC50 in assay [1] (setting [2]) was determined as 1100 nM; at CCR2, 420 nM.

Turning to `O=C(/C=C/c1cc(F)cc(F)c1)N1CCC(O)(C(O)CN2CCC(c3c[nH]c4ccccc34)CC2)CC1` (stereo not shown) [Compound 71], the figures for the half-maximal inhibitory concentration (IC50) (in assay [1] (setting [2]); on CCR2) were 200 nM and 40 nM, respectively.

With `O=C(/C=C/c1cccc(F)c1)N1CCC(O)(C(O)CN2CCC(c3c[nH]c4ccccc34)CC2)CC1` (stereo not shown) [Compound 76], the concentration for half-maximal inhibition (IC50) in assay [1] (setting [2]) was 165 nM; on CCR2, 470 nM.

Take `O=C(/C=C/c1cccc(C(F)(F)F)c1)N1CCC(O)(C(O)CN2CCC(c3c[nH]c4ccccc34)CC2)CC1` (stereo not shown) [Compound 77]: the half-maximal inhibitory concentration (IC50) in assay [1] (setting [2]) was determined as 85 nM; on CCR2, 500 nM.

Take `O=C(/C=C/c1ccsc1)N1CCC(O)(C(O)CN2CCC(c3c[nH]c4ccccc34)CC2)CC1` (stereo not shown) [Compound 79]: the IC50 in assay [1] (setting [2]) worked out at 7400 nM; on CCR2 it was 810 nM.

Turning to `O=C(Nc1ccc(F)c(F)c1)N1CCC(O)(C(O)CN2CCC(c3c[nH]c4ccccc34)CC2)CC1` (stereo not shown) [Compound 82, 4-hydroxy-4-{1-hydroxy-2-[4-(1H-indol-3-yl)-piperidin-1-yl]-ethyl}-piperidine-1-carboxylic acid (3,4-difluoro-phenyl)-amide], the IC50 is 2600 nM in assay [1] (setting [2]) and 1300 nM at CCR2.

On to `OC(CN1CCC(c2c[nH]c3ccccc23)CC1)C1(O)CCN(C(=S)Nc2ccc(Cl)c(Cl)c2)CC1` (stereo not shown) [Compound 84, 4-hydroxy-4-{1-hydroxy-2-[4-(1H-indol-3-yl)-piperidin-1-yl]-ethyl}-piperidine-1-carbothioic acid (3,4-dichloro-phenyl)-amide], for which the results for the IC50 (in assay [1] (setting [2]); at CCR2) were 30 nM and 550 nM, respectively.

As to `O=C(/C=C/c1cc(F)c(F)c(F)c1)N1CCC(O)(C(O)CN2CCC(c3nc4ccccc4[nH]3)CC2)CC1` (stereo not shown) [Compound 87], the figures for the IC50 (in assay [1] (setting [2]); at CCR2) were 3300 nM and 470 nM, respectively.

Regarding `COc1ccc(C2CCN(CC(O)C3CCN(C(=S)Nc4cc(Cl)cc(Cl)c4)CC3)CC2)cc1` (stereo not shown) [Compound 89, 4-{1-hydroxy-2-[4-(4-methoxy-phenyl)-piperidin-1-yl]-ethyl}-piperidine-1-carbothioic acid (3,5-dichloro-phenyl)-amide], the IC50 in assay [1] (setting [2]) was 1800 nM; at CCR2, 550 nM.

As to `COc1ccc(C2CCN(CC(O)C3(O)CCN(C(=O)/C=C/c4cccc(C)c4)CC3)CC2)cc1` (stereo not shown) [Compound 95], the inhibition at 25 µM in assay [1] (Homo sapiens) worked out at 53%. Further, the IC50 on CCR2 turned out to be 1400 nM.

Regarding `COc1ccc(C2CCN(CC(O)C3CCN(C(=S)Nc4cccc(Cl)c4)CC3)CC2)cc1` (stereo not shown) [Compound 102, 4-{1-hydroxy-2-[4-(4-methoxy-phenyl)-piperidin-1-yl]-ethyl}-piperidine-1-carbothioic acid (3-chloro-phenyl)-amide], the figures for the IC50 (in assay [1] (setting [2]); at CCR2) were 2500 nM and 480 nM, respectively.

Turning to `COc1ccc(C2CCN(CC(O)C3CCN(C(=S)Nc4cccc(OC)c4)CC3)CC2)cc1` (stereo not shown) [Compound 103, 4-{1-hydroxy-2-[4-(4-methoxy-phenyl)-piperidin-1-yl]-ethyl}-piperidine-1-carbothioic acid (3-methoxy-phenyl)-amide], the IC50 in assay [1] (THP-1 cells) was 2200 nM; on CCR2, 500 nM.

As to `COc1ccc(C2CCN(CC(O)C3CCN(C(=S)Nc4cccc(C(F)(F)F)c4)CC3)CC2)cc1` (stereo not shown) [Compound 105, 4-{1-hydroxy-2-[4-(4-methoxy-phenyl)-piperidin-1-yl]-ethyl}-piperidine-1-carbothioic acid (3-trifluoromethyl-phenyl)-amide], the IC50 stood at 3400 nM in assay [1] (THP-1 cells) and 540 nM at CCR2.

`COc1ccc(C2CCN(CC(O)C3CCN(C(=S)Nc4ccc(C(F)(F)F)cc4)CC3)CC2)cc1` (stereo not shown) [Compound 106, 4-{1-hydroxy-2-[4-(4-methoxy-phenyl)-piperidin-1-yl]-ethyl}-piperidine-1-carbothioic acid (4-trifluoromethyl-phenyl)-amide]: the results for the half-maximal inhibitory concentration (IC50) (in assay [1] (setting [2]); on CCR2) were 2600 nM and 760 nM, respectively.

Turning to `COc1ccc(C2CCN(CC(O)C3CCN(C(=S)Nc4ccc(Cl)c(Cl)c4)CC3)CC2)cc1` (stereo not shown) [Compound 108, 4-{1-hydroxy-2-[4-(4-methoxy-phenyl)-piperidin-1-yl]-ethyl}-piperidine-1-carbothioic acid (3,4-dichloro-phenyl)-amide], the IC50 in assay [1] (THP-1 cells) was 480 nM; at CCR2, 210 nM.

With `COc1ccc(C2CCN(CC(O)C3(O)CCN(C(=O)/C=C/c4ccsc4)CC3)CC2)cc1` (stereo not shown) [Compound 113], the IC50 amounted to 4900 nM in assay [1] (setting [2]) and 1600 nM at CCR2.

As for `COc1ccc(C2CCN(CC(O)C3(O)CCN(C(=O)Nc4ccc(F)c(F)c4)CC3)CC2)cc1` (stereo not shown) [Compound 114, 4-hydroxy-4-{1-hydroxy-2-[4-(4-methoxy-phenyl)-piperidin-1-yl]-ethyl}-piperidine-1-carboxylic acid (3,4-difluoro-phenyl)-amide], in assay [1] (Homo sapiens), the inhibition at 25 µM turned out to be 55%. In addition, the IC50 at CCR2 is 1100 nM.

As for `COc1ccc(C2CCN(CC(O)C3(O)CCN(C(=O)Nc4cc(F)cc(F)c4)CC3)CC2)cc1` (stereo not shown) [Compound 115, 4-hydroxy-4-{1-hydroxy-2-[4-(4-methoxy-phenyl)-piperidin-1-yl]-ethyl}-piperidine-1-carboxylic acid (3,5-difluoro-phenyl)-amide], the inhibition at 25 µM in assay [1] (Homo sapiens) turned out to be 57%. Besides, on CCR2, the IC50 turned out to be 910 nM.

`COc1ccc(C2CCN(CC(O)C3(O)CCN(C(=O)Nc4ccc(Cl)c(Cl)c4)CC3)CC2)cc1` (stereo not shown) [Compound 116, 4-hydroxy-4-{1-hydroxy-2-[4-(4-methoxy-phenyl)-piperidin-1-yl]-ethyl}-piperidine-1-carboxylic acid (3,4-dichloro-phenyl)-amide]: the IC50 in assay [1] (setting [2]) came out at 840 nM; at CCR2 it was 530 nM.

Take `COc1ccc(C2CCN(CC(O)C3(O)CCN(C(=S)Nc4ccc(Cl)c(Cl)c4)CC3)CC2)cc1` (stereo not shown) [Compound 117, 4-hydroxy-4-{1-hydroxy-2-[4-(4-methoxy-phenyl)-piperidin-1-yl]-ethyl}-piperidine-1-carbothioic acid (3,4-dichloro-phenyl)-amide]: the results for the half-maximal inhibitory concentration (IC50) (in assay [1] (setting [2]); on CCR2) were 1200 nM and 1300 nM, respectively.

For the compound `COc1ccc(C2CCN(CC(O)C3(O)CCN(C(=S)Nc4cc(Cl)cc(Cl)c4)CC3)CC2)cc1` (stereo not shown) [Compound 118, 4-hydroxy-4-{1-hydroxy-2-[4-(4-methoxy-phenyl)-piperidin-1-yl]-ethyl}-piperidine-1-carbothioic acid (3,5-dichloro-phenyl)-amide], the half-maximal inhibitory concentration (IC50) in assay [1] (setting [2]) turned out to be 3100 nM; at CCR2, 1300 nM.

Consider `OC(CN1CCC(c2c[nH]c3ccccc23)CC1)C1(O)CCN(c2nccc(C(F)(F)F)n2)CC1` (stereo not shown) [Compound 120, 4-{1-hydroxy-2-[4-(1H-indol-3-yl)-piperidin-1-yl]-ethyl}-1-(4-trifluoromethyl-pyrimidin-2-yl)-piperidin-4-ol], for which the inhibition at 25 µM in assay [1] (Homo sapiens) was found to be 13%. For the same compound, the half-maximal inhibitory concentration (IC50) at CCR2 turned out to be 1900 nM.

For `OC(CN1CCC(c2nc3ccccc3[nH]2)CC1)C1(O)CCN(c2nccc(C(F)(F)F)n2)CC1` (stereo not shown) [Compound 121, 4-{2-[4-(1H-benzoimidazol-2-yl)-piperidin-1-yl]-1-hydroxy-ethyl}-1-(4-trifluoromethyl-pyrimidin-2-yl)-piperidin-4-ol], the inhibition at 25 µM was found to be 65% in assay [1] (Homo sapiens) and 50% at CCR2 (test concentration of 25 μM, given where an IC50 value was not obtained, read-out: Inhibition of MCP-1 Binding, percent inhibition).

As to `Cc1ccc2[nH]cc(C3CCN(CC(O)C4(O)CCN(c5nccc(C(F)(F)F)n5)CC4)CC3)c2c1` (stereo not shown) [Compound 123, 4-{1-hydroxy-2-[4-(5-methyl-1H-indol-3-yl)-piperidin-1-yl]-ethyl}-1-(4-trifluoromethyl-pyrimidin-2-yl)-piperidin-4-ol], the inhibition at 25 µM in assay [1] (Homo sapiens) was 68%. Moreover, the half-inhibitory concentration (IC50) at CCR2 is 9400 nM.

Source of the values: patent US20070197590A1, “SUBSTITUTED DIPIPERIDINE CCR2 ANTAGONISTS” (priority 2006, published 2007).
